Several values for one entry are separate records, joined by “and”; a condition that tells them apart may be missing. Equal entries are not always repeated. Where two headings read alike, the source gives them in different places.
Columns and labels:
[1] = Solubility testing; type: physicochemical; details: buffer, kinetic from dmso stock
Protocol: Dilution into a 1:1 mixture of acetonitrile and water was used as reference. After 24 h, the incubations were filtrated, and the filtrate was analyzed by LC-UV.

[2] = biological target: SMARCA2 (Homo sapiens, UniProt P51531); experiment: SMARCA2 capillary electrophoresis protein assay in other cell lines (A549, NCI-H1568, HCT116, LU99, HCC-364, HCT-15, HCC4006, SK-N-AS); type: cell-based; parameters: endogenous in cells; host or cells: RKO, NCI-H1568, A549, HCT116, LU99, HCC-364, HCT-15, HCC4006, SK-N-AS; details: for LogEC50: log10 of concentration in mol/l
Protocol: 130,000–200,000 cells were seeded in 24-well plates and incubated until settled down or overnight. Compounds were dissolved in DMSO and added to cells in indicated concentrations using a digital dispenser following an optional media change. Cells were incubated for 4 or 18 h as indicated. For SMARCA2/4 half-life determination, 150,000 or 200,000 cells were seeded in 24-well plates. The next day, 50 µg/ml cycloheximide (Sigma) was added and cells were incubated for 1–24 h. For SMARCA2/4 re-synthesis measurements, 200,000 cells were seeded in 24-well plates. The next day, 100 nM compound 6 was added for 4 h to degrade SMARCA2/4, and a sample was taken as baseline for normalisation. To allow re-synthesis, a VHL binder (compound 32, 25 or 50 µM) was then added for 3 or 24 h. Medium was removed, cells were washed with PBS and lysed with 80 µl Lysis Buffer (MSD Tris Lysis Buffer (#R60TX-2) + Halt Inhibitor Cocktail (100x) + Benzonase 0.5 µL/ml). Samples were frozen at −80 °C and thawed at room temperature before use. Samples were transferred to a V-bottom plate and insoluble debris was pelleted by centrifugation for 5 min at maximum speed. The supernatant was transferred to a fresh plate. Master Mix and Ladder were prepared according to manufacturer’s instructions for 12–230 kDa Wes Separation Module, 8 × 25 capillary cartridges, Protein Simple #SM-W004 with Anti-Rabbit Detection Module for Wes, Peggy Sue or Sally Sue, Protein Simple #DM-001. 4.8 µl lysate were mixed with 1.2 µl Master Mix to achieve a protein concentration of ~0.5 µg/µl. Antibodies were diluted in Antibody Diluent II (SMARCA2 Sigma #HPA029981 RRID:AB_10602406 1:25–100, SMARCA4 Cell Signalling #49360 clone D1Q7F RRID:AB_2728743 1:15–120 or Abcam #ab110641 clone EPNCIR111A RRID:AB_10861578 1:60, GAPDH Abcam #ab9485 RRID:AB_307275 1:250). Wes plates were prepared and run according to manufacturer’s instructions. Proteins were quantified with accompanying Compass Software. SMARCA2/4 protein levels were normalised to GAPDH. […] Where applicable, curves were fitted using a 4-parametric logistic model.

[3] = HCC4006_SM2, four-parameter fit
[4] = HCC-364_SM2, four-parameter fit

SMARCA2, sequence (P51531 whole entry): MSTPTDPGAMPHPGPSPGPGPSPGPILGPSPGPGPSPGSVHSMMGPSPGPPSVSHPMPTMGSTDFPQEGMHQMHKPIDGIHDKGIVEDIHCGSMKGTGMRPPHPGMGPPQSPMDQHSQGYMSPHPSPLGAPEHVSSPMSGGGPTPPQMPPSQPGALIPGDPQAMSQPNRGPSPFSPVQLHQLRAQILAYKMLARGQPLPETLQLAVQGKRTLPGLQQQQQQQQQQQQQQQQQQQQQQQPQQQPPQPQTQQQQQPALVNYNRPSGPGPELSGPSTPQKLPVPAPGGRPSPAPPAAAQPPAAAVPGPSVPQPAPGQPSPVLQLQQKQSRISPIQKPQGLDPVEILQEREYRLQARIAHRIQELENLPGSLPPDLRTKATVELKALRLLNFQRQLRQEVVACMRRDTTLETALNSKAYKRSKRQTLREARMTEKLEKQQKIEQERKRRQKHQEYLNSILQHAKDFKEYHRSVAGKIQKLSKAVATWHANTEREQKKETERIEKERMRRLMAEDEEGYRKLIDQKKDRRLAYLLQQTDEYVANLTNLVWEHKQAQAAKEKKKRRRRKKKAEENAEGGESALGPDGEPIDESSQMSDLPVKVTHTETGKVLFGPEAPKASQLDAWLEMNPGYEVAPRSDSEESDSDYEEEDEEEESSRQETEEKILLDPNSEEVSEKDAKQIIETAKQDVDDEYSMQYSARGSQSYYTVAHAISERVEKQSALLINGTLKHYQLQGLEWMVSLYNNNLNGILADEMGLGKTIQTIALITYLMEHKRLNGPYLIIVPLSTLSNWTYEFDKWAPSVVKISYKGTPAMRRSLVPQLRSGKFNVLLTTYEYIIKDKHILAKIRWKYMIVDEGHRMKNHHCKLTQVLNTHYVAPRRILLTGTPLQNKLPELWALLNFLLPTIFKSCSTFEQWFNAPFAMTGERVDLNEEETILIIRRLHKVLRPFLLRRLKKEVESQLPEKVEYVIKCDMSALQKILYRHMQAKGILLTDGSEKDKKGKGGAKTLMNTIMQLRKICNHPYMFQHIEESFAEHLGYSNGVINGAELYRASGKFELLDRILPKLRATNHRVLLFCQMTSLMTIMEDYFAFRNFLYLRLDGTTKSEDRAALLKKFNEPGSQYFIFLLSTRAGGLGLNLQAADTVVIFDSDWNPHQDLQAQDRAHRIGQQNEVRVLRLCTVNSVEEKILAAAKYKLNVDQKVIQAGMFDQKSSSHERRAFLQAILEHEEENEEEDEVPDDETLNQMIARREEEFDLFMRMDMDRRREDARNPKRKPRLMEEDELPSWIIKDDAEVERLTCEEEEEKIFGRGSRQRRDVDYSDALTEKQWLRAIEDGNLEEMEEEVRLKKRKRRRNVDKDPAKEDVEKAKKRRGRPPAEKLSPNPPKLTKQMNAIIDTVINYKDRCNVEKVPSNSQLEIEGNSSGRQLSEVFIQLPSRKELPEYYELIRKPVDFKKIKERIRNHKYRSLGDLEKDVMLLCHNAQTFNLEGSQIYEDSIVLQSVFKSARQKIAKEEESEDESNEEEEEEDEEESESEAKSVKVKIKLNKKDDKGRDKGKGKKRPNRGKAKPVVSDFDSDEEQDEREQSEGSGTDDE

Q: Which results are given for `Cc1ncsc1-c1ccc(C(CCC(C)CCN2CCC(c3ccc4c(c3)n(C3CCCC3)c3nc(=O)c5c(Br)cccc5n43)CC2)NC(=O)C2CC(O)CN2C(=O)C(NC(=O)C2(F)CC2)C(C)(C)C)cc1` (stereo not drawn) [ACBI2]?
A: solubility at 24 h ([1]; pH 4.5, aqueous buffer, pH 4.5, read-out: Solubility pH 4.5): < 1 µg/mL; solubility at 24 h ([1]; pH 6.8, aqueous buffer, pH 6.8, read-out: Solubility pH 6.8): < 1 µg/mL; Bottom (% protein remaining, four-parameter fit) ([2]; A549, 4h): 4.929%; HillSlope (protein remaining) ([2]; A549, 4h): -1.225; LogEC50 (protein remaining) ([2]; A549, 4h): -8.097 log10(mol/l); Top (% protein remaining, four-parameter fit) ([2]; A549, 4h): 100.9%; % protein remaining ([2]; A549, 4h, conc 1.00001e-10 mol/l): 84.5708% and 85.2048%; % protein remaining ([2]; A549, 4h, conc 1.52416e-10 mol/l): 108.644%; % protein remaining ([2]; A549, 4h, conc 3.1623e-10 mol/l): 89.402% and 93.1131%; % protein remaining ([2]; A549, 4h, conc 4.57247e-10 mol/l): 121.415%; % protein remaining ([2]; A549, 4h, conc 1.00001e-9 mol/l): 110.304% and 110.867%; % protein remaining ([2]; A549, 4h, conc 1.37174e-9 mol/l): 89.7364%; % protein remaining ([2]; A549, 4h, conc 3.1623e-9 mol/l): 63.5379% and 69.9208%; % protein remaining ([2]; A549, 4h, conc 4.11523e-9 mol/l): 69.7779%; % protein remaining ([2]; A549, 4h, conc 1.00001e-8 mol/l): 46.41% and 40.9559%; % protein remaining ([2]; A549, 4h, conc 1.23457e-8 mol/l): 53.3153%; % protein remaining ([2]; A549, 4h, conc 3.1623e-8 mol/l): 21.5929% and 21.3671%; % protein remaining ([2]; A549, 4h, conc 3.7037e-8 mol/l): 16.6414%; % protein remaining ([2]; A549, 4h, conc 1.00001e-7 mol/l): 9.055% and 9.573%; % protein remaining ([2]; A549, 4h, conc 1.11111e-7 mol/l): 6.719%; % protein remaining ([2]; A549, 4h, conc 3.1623e-7 mol/l): 3.884% and 5.2896%; % protein remaining ([2]; A549, 4h, conc 3.33333e-7 mol/l): 5.288%; % protein remaining ([2]; A549, 4h, conc 1e-6 mol/l): 9.764%; % protein remaining ([2]; A549, 4h, conc 1.00001e-6 mol/l): 2.893% and 6.667%; % protein remaining ([2]; A549, 4h, conc 3.1623e-6 mol/l): 2.881% and 4.488%; DC50 ([2]; A549, 4h, read-out: EC50 (protein remaining)): 8 nM; Bottom (% protein remaining, four-parameter fit) ([2]; A549, 8h): 4.658%; HillSlope (protein remaining) ([2]; A549, 8h): -1.748; LogEC50 (protein remaining) ([2]; A549, 8h): -8.366 log10(mol/l); Top (% protein remaining, four-parameter fit) ([2]; A549, 8h): 107%; % protein remaining ([2]; A549, 8h, conc 1.52416e-10 mol/l): 110.756% and 87.6939%; % protein remaining ([2]; A549, 8h, conc 4.57247e-10 mol/l): 98.1008% and 121.894%; % protein remaining ([2]; A549, 8h, conc 1.37174e-9 mol/l): 100.189% and 99.1847%; % protein remaining ([2]; A549, 8h, conc 3.7037e-8 mol/l): 13.1114% and 6.497%; % protein remaining ([2]; A549, 8h, conc 1.11111e-7 mol/l): 4.666% and 4.638%; % protein remaining ([2]; A549, 8h, conc 3.33333e-7 mol/l): 3.034% and 3.636%; % protein remaining ([2]; A549, 8h, conc 1e-6 mol/l): 2.595% and 3.383%; % protein remaining ([2]; A549, 8h, conc 3e-6 mol/l): 3.585% and 2.581%; DC50 ([2]; A549, 8h, read-out: EC50 (protein remaining)): 4.31 nM; Bottom (% protein remaining, four-parameter fit) ([2]; A549, 18h): 5.224%; HillSlope (protein remaining) ([2]; A549, 18h): -3.553; LogEC50 (protein remaining) ([2]; A549, 18h): -8.518 log10(mol/l); Top (% protein remaining, four-parameter fit) ([2]; A549, 18h): 104.8%; % protein remaining ([2]; A549, 18h, conc 1.52416e-10 mol/l): 87.6939%; % protein remaining ([2]; A549, 18h, conc 4.57247e-10 mol/l): 121.894%; % protein remaining ([2]; A549, 18h, conc 1.37174e-9 mol/l): 99.1847%; % protein remaining ([2]; A549, 18h, conc 4.11523e-9 mol/l): 30.1189%; % protein remaining ([2]; A549, 18h, conc 1.23457e-8 mol/l): 11.5462%; % protein remaining ([2]; A549, 18h, conc 3.7037e-8 mol/l): 6.497%; % protein remaining ([2]; A549, 18h, conc 1.11111e-7 mol/l): 4.638%; % protein remaining ([2]; A549, 18h, conc 3.33333e-7 mol/l): 3.636%; % protein remaining ([2]; A549, 18h, conc 1e-6 mol/l): 3.383%; % protein remaining ([2]; A549, 18h, conc 3e-6 mol/l): 2.581%; DC50 ([2]; A549, 18h, read-out: EC50 (protein remaining)): 3.03 nM; SMARCA2 degradation in sensitive cell lines ([2]; A549 and NCI-H1568): rapid and complete degradation of SMARCA2; Bottom (best-fit value, % protein remaining) [2, 3]: 15.27%; HillSlope [2, 3]: -1.75; LogEC50 ([2]; HCC4006_SM2): -7.779; DC50 ([2]; HCC4006_SM2, protein degradation, four-parameter fit, read-out: EC50 (the source's name)): 16.6 nM; Bottom (best-fit value, % protein remaining) [2, 4]: 10.4%; HillSlope [2, 4]: -2.48; LogEC50 ([2]; HCC-364_SM2): -8.138; DC50 ([2]; HCC-364_SM2, protein degradation, four-parameter fit, read-out: EC50 (the source's name)): 7.28 nM; Bottom (% protein remaining, four-parameter fit) ([2]; HCT116, SM2): 21.77%; HillSlope (protein remaining) ([2]; HCT116, SM2): -1.136; Top (% protein remaining, four-parameter fit) ([2]; HCT116, SM2): 121.9%; Bottom (best-fit value, % protein remaining) ([2]; HCT-15_SM2, four-parameter fit): -16.7%; HillSlope ([2]; HCT-15_SM2, four-parameter fit): -0.6998; LogEC50 ([2]; HCT-15_SM2): -6.787

Source: article PMC9551036, “A selective and orally bioavailable VHL-recruiting PROTAC achieves SMARCA2 degradation in vivo” (Nature Communications, 2022)
